# Experimental data reported in ChEMBL document CHEMBL1909530, “Computational techniques are valuable tools for the discovery of protein-protein interaction inhibitors: the 14-3-3σ case” (Bioorg Med Chem Lett, 2011).
# Substitutions are numbered along the chain they refer to. pKd: −log10 of the molar value. Activity calls are given as the source filed them. The rule behind the calls is not given here.
# Legend:
# [1] = biological target: T1, 14-3-3 protein sigma (Homo sapiens) (UniProt P31947); test: Inhibition of 14-3-3sigma binding domain in human Ba/F3 cells expressing imatibib-sensitive wild type Bcr-Abl construct assessed as inhibition of 14-3-3sigma-c-Abl interaction; format: cell-based; conditions: BaF3
# T1 sequence (whole entry): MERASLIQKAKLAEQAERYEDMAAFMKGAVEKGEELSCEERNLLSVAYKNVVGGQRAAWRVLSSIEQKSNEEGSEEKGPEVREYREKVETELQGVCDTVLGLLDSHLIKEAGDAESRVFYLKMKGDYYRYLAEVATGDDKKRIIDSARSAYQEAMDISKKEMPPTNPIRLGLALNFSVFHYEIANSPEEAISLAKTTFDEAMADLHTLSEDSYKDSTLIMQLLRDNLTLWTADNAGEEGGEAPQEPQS
# [2] = biological target: T1, 14-3-3 protein sigma (Homo sapiens); test: Inhibition of 14-3-3sigma in human Ba/F3 cells expressing imatinib-sensitive wild type Bcr-Abl construct assessed as cell survival; format: cell-based; conditions: BaF3
# [3] = biological target: T2, 14-3-3 protein sigma (Mus musculus) (UniProt O70456); test: Inhibition of 14-3-3sigma in mouse 32D cells expressing imatinib-sensitive wild type Bcr-Abl construct assessed as cell survival; format: cell-based
# T2 sequence (whole entry): T1 sequence (whole entry) with G28S, R82K, Q93R, E110G, N234S, Q244E
# [4] = biological target: T1, 14-3-3 protein sigma (Homo sapiens); test: Inhibition of 14-3-3sigma binding domain in human Ba/F3 cells expressing imatibib-resistant Bcr-Abl T315I mutant construct assessed as inhibition of 14-3-3sigma-c-Abl interaction; format: cell-based; conditions: BaF3
# [5] = biological target: T1, 14-3-3 protein sigma (Homo sapiens); conditions: BaF3, 1 uM
# Description: Inhibition of 14-3-3sigma in human Ba/F3 cells expressing wild type Bcr-Abl construct assessed as release of full-length c-Abl from cytoplasmic complex with 14-3-3sigma at 1 uM after 24 hrs by immunoprecipitation/immunoblot technique
# 14-3-3 protein sigma = biological target: T3, 14-3-3 protein sigma (Homo sapiens, UniProt P31947); test: Binding affinity to histidine-tagged human recombinant 14-3-3sigma by transferred NOESY analysis
# T3 sequence (P31947 whole entry): T1 sequence (whole entry)
# [6] = biological target: T1, 14-3-3 protein sigma (Homo sapiens); test: Inhibition of 14-3-3sigma in human Ba/F3 cells expressing imatinib-sensitive wild type Bcr-Abl construct assessed as release of full-length c-Abl from cytoplasmic complex with 14-3-3sigma at 5 uM after 24 hrs by immunoprecipitation/immunoblot technique; format: cell-based; conditions: BaF3
# [7] = biological target: T1, 14-3-3 protein sigma (Homo sapiens); test: Inhibition of 14-3-3sigma in human Ba/F3 cells expressing imatinib-sensitive wild type Bcr-Abl construct assessed as nuclear import of full-length c-Abl at 5 uM after 24 hrs by immunoprecipitation/immunoblot technique; format: cell-based; conditions: BaF3
# [8] = biological target: T1, 14-3-3 protein sigma (Homo sapiens); test: Inhibition of 14-3-3sigma in human Ba/F3 cells expressing imatinib-sensitive wild type Bcr-Abl construct assessed as relocation of full-length c-Abl to mitochondrial membranes at 5 uM after 24 hrs by immunoprecipitation/immunoblot technique; format: cell-based; conditions: BaF3
# [9] = biological target: T1, 14-3-3 protein sigma (Homo sapiens); test: Inhibition of 14-3-3sigma in human Ba/F3 cells expressing imatinib-sensitive wild type Bcr-Abl construct assessed as cleaved c-Abl at mitochondrial membranes at 5 uM after 24 hrs by immunoprecipitation/immunoblot technique; format: cell-based; conditions: BaF3
smiles,measurement,setting,value
Cc1ccc(-c2cc(-c3ccccc3)nc(N/N=C/c3cc([N+](=O)[O-])ccc3O)n2)cc1,LD50,[1],0.65 µM
same,LD50,[2],0.65 µM
same,LD50,[3],2.84 µM
Cc1c(NC(=O)c2cc(C(=O)O)ccc2C(=O)O)c(=O)n(-c2ccccc2)n1C,LD50,[1],1.04 µM
same,LD50,[4],1.47 µM
Cc1ccc(NC(=O)c2ccc(CN3CCN(C)CC3)cc2)cc1Nc1nccc(-c2cccnc2)n1,inhibition,[5],Active
CCCCCCOC(=O)c1ccc(Nc2c([N+](=O)[O-])cc(C(=O)O)cc2[N+](=O)[O-])cc1,pKd,14-3-3 protein sigma,< 6.00
same,LD50,[1],1.41 µM
same,LD50,[4],1.7 µM
same,inhibition,[6],Active
same,inhibition,[7],Active
same,inhibition,[8],Active
same,inhibition,[9],Active
